# Test results reported in patent publication US20230338307A1, “PROPHYLACTIC AGENT, AMELIORATING AGENT, AND THERAPEUTIC AGENT FOR DRY EYE” (TSUBOTA LABORATORY, INC., priority 2020, published 2023).
# Assays:
# [1] = tested on: dry eye model; test: Schirmer test (tear volume), dry eye model by erlotinib instillation (Example 1); assay type: in vivo; conditions: 0.003% (w/v) apocynin in PBS, 3 μL twice daily, two weeks after start of instillation; erlotinib-instilled C57BL6 mice; FIG. 2
# Excerpt: After acclimating male C57BL6 mice (7 weeks old) to the experimental environment, those with almost uniform body weight values and no eye abnormalities were divided into the following 3 groups (n=5). • 7 weeks old/normal (non-dry eye group) • 7 weeks old/dry eye model+control (solvent eye drop) group • 7 weeks old/dry eye model+apocynin eye drop group The dry eye model was created by daily instillation of an EGF receptor inhibitor (erlotinib) based on the method of Yang et al. In this model, administration of erlotinib causes dry eye symptoms such as shortened BUT, decreased tear volume, and corneal damage after 1 week of administration (Non-patent Document 3). After 20 μM of erlotinib was instilled for 2 weeks, the control group received PBS alone, and the test group received 3 μL of a suspension of 0.003% (w/v) apocynin in PBS twice daily. Two weeks after the start of instillation, 1 μL of 0.1% sodium fluorescein solution was instilled into each of both eyes under isoflurane anesthesia, and a BUT test was performed using a slit lamp (Kowa Co., Ltd., SL-17) (FIG. 1). […] Under anesthesia, the tip of a Schirmer test paper cut to 1 mm width was inserted into the conjunctival sac of the lower eyelid of the mouse, the test paper was removed after 5 minutes, the length of the wetted part was read in units of 0.5 mm, and the value was used as the tear volume (FIG. 2).
# [2] = tested on: dry eye model; test: Schirmer test (tear volume), benzalkonium chloride dry eye model, Comparative Study 1 (Example 4); assay type: in vivo, mice; conditions: 0.1% (w/v) apocynin in 0.5% methylcellulose twice a day, 3 days after start; versus 0.5% (w/v) hyaluronic acid group; FIG. 8
# Protocol: After acclimating male C57BL6 mice (7 weeks old) to the experimental environment, those with almost uniform weight values and no eye abnormalities were divided into the following groups (n=4). • 7 weeks old/normal (non-dry eye group) • 7 weeks old/dry eye model+control (solvent eye drop) group • 7 weeks old/dry eye model+0.1% (w/v) apocynin eye drop group • 7 weeks old/dry eye model+0.5% (w/v) hyaluronic acid eye drop group A dry eye model was prepared by instilling the benzalkonium chloride solution at 3 μL each eye, twice a day for 8 days. After that, the control group received the 0.5% methylcellulose solution alone, and the test group received 0.1% (w/v) apocynin or 0.5% (w/v) hyaluronic acid suspended in the 0.5% methylcellulose solution twice a day for 15 days at 3 μL for each of both eyes. Schirmer's test was performed 1, 3, 6, and 8 days after the start of instillation of the comparative test drug, and tear volume was evaluated.
smiles,measurement,setting,value
"COc1cc(C(C)=O)ccc1O [apocynin, 4-hydroxy-3-methoxyacetophenone]",tear volume (Schirmer test),[1],improved
same,tear volume (Schirmer test),[2],marked improvement in the tear volume compared to the hyaluronic acid eye drop group
